A short description of data set [1]: intravenous toxicity in conscious mice. The following applies: four conscious mice, one hundred times the dose giving approximate 50% inhibition of gastric secretion in the anaesthetised rat. In kind it is in vivo. The protocol: (§1) No overt toxicity or side effects were noted during the rat or dog tests. The compound 5-[4-(2-allylguanidino)-1,2,3-triazol-2-yl]valeramide was administered intravenously to groups of two anaesthetised rats and four conscious mice at doses which were respectively ten times and one hundred times the dose, in mg/kg., which produced an approximate 50% inhibition of gastric secretion in the anaesthetised rat.

Data set [2] is described as follows: intravenous toxicity in anaesthetised rats. In kind it is in vivo. The following applies: two anaesthetised rats, ten times the dose giving approximate 50% inhibition of gastric secretion in the anaesthetised rat. The protocol: as §1

Molecules are shown by their SMILES.

In the case of `C=CCN=C(N)Nc1cnn(CCCCC(N)=O)n1.O=C(O)/C=C\C(=O)O` [Example 8, 5-(4-[2-allylguanidino]-1,2,3-triazol-2-yl)valeramide maleate], the toxic symptoms entry in data set [1] and in data set [2] was “No toxic symptoms were noted” in each case.

The record behind these values is US4696933A, “Guanidine compounds useful as histamine H2-antagonists” (ICI Americas Inc., priority 1981, dated 1987).
